One test concerns the target T1, Aminopeptidase N (Plasmodium falciparum FcB1/Columbia, UniProt O96935).
T1 sequence (O96935 whole entry): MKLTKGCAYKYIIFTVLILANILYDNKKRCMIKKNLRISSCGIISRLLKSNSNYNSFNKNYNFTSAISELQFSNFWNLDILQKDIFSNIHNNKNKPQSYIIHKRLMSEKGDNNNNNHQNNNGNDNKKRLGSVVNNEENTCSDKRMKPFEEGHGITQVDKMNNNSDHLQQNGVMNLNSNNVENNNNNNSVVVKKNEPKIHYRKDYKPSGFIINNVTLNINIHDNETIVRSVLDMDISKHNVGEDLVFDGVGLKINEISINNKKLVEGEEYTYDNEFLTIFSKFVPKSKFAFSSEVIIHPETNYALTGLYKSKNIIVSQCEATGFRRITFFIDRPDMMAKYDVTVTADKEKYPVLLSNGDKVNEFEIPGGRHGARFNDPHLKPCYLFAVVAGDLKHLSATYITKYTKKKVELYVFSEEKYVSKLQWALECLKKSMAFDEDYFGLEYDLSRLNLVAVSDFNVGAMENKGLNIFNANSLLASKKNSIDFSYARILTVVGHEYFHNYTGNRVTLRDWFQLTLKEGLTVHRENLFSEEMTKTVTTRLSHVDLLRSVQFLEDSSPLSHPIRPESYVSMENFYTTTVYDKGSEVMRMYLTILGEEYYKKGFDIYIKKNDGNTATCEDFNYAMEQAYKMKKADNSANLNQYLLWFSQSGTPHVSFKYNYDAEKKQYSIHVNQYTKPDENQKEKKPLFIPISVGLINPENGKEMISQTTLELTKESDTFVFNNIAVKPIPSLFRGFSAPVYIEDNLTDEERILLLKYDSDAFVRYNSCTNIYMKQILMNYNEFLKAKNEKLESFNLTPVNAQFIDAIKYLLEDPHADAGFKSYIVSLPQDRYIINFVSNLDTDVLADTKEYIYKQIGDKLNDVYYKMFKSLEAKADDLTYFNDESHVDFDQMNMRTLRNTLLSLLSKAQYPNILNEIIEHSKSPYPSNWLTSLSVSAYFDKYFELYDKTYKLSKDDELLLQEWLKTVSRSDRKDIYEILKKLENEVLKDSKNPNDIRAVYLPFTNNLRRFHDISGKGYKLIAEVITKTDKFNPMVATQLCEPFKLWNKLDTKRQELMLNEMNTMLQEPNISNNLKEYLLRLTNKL
The experiment in a line: P. falciparum M1AAP inhibitors, biochemical, fluorogenic H-Leu-NHMec substrate, 1536-well (AID 1445). Details: species or system Plasmodium falciparum 3D7, 3D7.

Another test concerns the target Prothrombin (Homo sapiens, UniProt P00734). In words: Thrombin 1536 HTS Dose Response Confirmation. [Related pubchem assays: 1046 (Thrombin 1536 HTS; hits were confirmed in this assay)]. The test is classed as functional.
The nature of test [1]: Vero cell cytotoxicity, dose response, cytotoxicity control for Vif-APOBEC3G degradation inhibitor project, Vero cells (AID 1117358). The test is classed as functional. To be noted: Human immunodeficiency virus 1, Vero.
Another test deals with Protein Tat (Human immunodeficiency virus type 1 group M subtype B (isolate HXB2)(HIV-1), UniProt P04608). The test is classed as functional.
Test [2] addresses Glutathione-S-transferase (Schistosoma japonicum, UniProt Q26513). In words: biotin-GST/anti-GST TR-FRET signal inhibitors, dose response, artefact control for Vif-APOBEC3G degradation inhibitor project, biochemical (AID 1117362). The test is classed as functional. In general terms: Time-resolved FRET reads energy transfer from a long-lived donor to a nearby acceptor.
For test [3], the system named is Vero. The experiment in a line: host cell cytotoxicity of antiviral hits, dose response, cytotoxicity control for West Nile virus antiviral project, secondary assay (AID 1650). The test is classed as functional. The note with it: Chlorocebus sabaeus.
Test [4] relates to Vero. The experiment in a line: West Nile virus antiviral activity, cell-based, CPE readout (AID 1621). The test is classed as functional. To be noted: Chlorocebus sabaeus.
Another test concerns H4. The experiment in a line: Luminescence Cell-Based Dose Response HTS to Identify Activators of 5'UTR Stem-Loop Driven Prion Protein mRNA Translation in H4 Neuroglioblastoma Cells. [Related pubchem assays: 1829 (Project Summary), 1814 (Primary HTS)]. The test is classed as functional. To be noted: Homo sapiens.
Test [5] can be described thus: Luminescence Cell-Based Dose Retest to Confirm Inhibitors of Cancer Stem Cells. [Related pubchem assays (depositor defined):AID2717, AID2721]. The test is classed as functional. To be noted: Homo sapiens.
Test [6] in a line: Luminescence Cell-Based Dose Response HTS to Identify Activators of Luciferase Translation or Activity in H4 […] Cells. [Related pubchem assays: 1829 (Project Summary), 1814 (Primary HTS)]. The test is classed as functional.
Test [7] concerns the target T2, Microphthalmia-associated transcription factor (Homo sapiens, UniProt O75030).
T2 sequence (O75030 whole entry): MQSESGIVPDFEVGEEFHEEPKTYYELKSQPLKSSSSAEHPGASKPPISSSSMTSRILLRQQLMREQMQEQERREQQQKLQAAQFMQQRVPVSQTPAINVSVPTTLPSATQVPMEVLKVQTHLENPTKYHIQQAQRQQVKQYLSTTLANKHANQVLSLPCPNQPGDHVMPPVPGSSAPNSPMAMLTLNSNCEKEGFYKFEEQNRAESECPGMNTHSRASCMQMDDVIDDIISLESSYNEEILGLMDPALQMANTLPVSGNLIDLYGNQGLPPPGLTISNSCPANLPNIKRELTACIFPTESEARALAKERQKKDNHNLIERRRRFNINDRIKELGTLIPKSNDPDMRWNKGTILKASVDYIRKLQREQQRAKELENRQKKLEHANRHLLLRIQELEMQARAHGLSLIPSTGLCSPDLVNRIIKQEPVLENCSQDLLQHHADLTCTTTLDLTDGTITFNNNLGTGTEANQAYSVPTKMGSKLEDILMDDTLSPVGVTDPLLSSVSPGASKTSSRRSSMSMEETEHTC
The experiment in a line: TRPM1 promoter luciferase signal decrease, dose response, MITF inhibitor project, cell-based, SK-MEL-5, cherry-picked, set 3 (AID 493073).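 Note: SK-MEL-5 melanoma cells with luciferase driven by the MITF target TRPM1 promoter.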 The test is classed as functional.

A short description of test [8]: Luminescence Cell-Based Dose Confirmation HTS to Identify Activators of 5'UTR Stem-Loop Driven Alpha-Synuclein mRNA Translation in H4 Neuroglioblastoma Cells. [Related pubchem assays: 1829 (Project Summary), 1814 (Primary HTS)]. The test is classed as functional.
Test [9] deals with Mitogen-activated protein kinase 10 (Homo sapiens, UniProt P53779). In words: Dose response biochemical screening assay for inhibitors of c-Jun N-Terminal Kinase 3 (JNK3). [Related pubchem assays: 746 ].
In the next test the target is T3, NADPH oxidase 1 (Homo sapiens, UniProt Q9Y5S8).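 Note: Cell-based assay with luminescence read-out, IC50 derived from inhibitor dose-response curves; intracellular ROS from endogenous NOX1 in intact HT29 colon cancer cells; potency of inhibitors that lower the ROS luminescence signal.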
T3 sequence (Q9Y5S8 whole entry): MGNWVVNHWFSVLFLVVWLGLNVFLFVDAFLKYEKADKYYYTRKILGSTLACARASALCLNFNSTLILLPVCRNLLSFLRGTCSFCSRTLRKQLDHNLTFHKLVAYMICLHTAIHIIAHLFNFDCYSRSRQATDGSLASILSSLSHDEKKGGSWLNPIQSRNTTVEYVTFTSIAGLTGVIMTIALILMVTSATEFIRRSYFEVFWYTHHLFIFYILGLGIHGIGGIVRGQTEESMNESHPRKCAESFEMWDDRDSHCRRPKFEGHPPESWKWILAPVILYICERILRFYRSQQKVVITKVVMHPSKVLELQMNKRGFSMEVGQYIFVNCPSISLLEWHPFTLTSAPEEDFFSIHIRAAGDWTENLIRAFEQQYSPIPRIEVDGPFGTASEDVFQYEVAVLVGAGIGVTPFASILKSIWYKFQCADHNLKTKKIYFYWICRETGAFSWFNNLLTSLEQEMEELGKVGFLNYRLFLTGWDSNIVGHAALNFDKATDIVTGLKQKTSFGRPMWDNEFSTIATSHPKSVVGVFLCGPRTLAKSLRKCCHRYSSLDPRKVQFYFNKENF
The test is classed as functional, cell-based.

Test [10] can be described thus: cytotoxicity in HPDE-C7 cells, cell-based, fluorescence, HTS (AID 430). The test is classed as functional. The note with it: Homo sapiens.
The nature of test [11]: Glucagon-like peptide 1 release potency, NCI-H716 cell line, dose-response, half-maximal inhibitory concentration (AID 1117344). The test is classed as functional, cell-based.
For a further test, the target named is T4, Bcl-2-related protein A1 (Mus musculus, UniProt Q07440).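 Note: confirmatory dose–response counterscreen on Bfl-1, used to check hits from a UBC13 polyubiquitin inhibitor campaign.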
T4 sequence (Q07440 whole entry): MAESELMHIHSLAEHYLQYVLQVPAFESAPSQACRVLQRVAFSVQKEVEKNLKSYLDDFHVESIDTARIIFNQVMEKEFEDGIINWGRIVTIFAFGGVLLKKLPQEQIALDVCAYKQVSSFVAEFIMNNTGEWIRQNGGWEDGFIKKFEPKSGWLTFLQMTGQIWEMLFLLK
The test is classed as functional.

The nature of test [12]: half-maximal inhibitory concentration for glucagon-like peptide-1 release, STC-1 cell line, dose-response (AID 1117345). The test is classed as functional, cell-based.
The nature of test [13]: cytotoxicity in KRAS-transformed pancreatic duct cells, primary screen, cell-based, fluorescence, HTS (AID 431).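 Note: cell line used: HPDE-C7K.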 The test is classed as functional. To be noted: Homo sapiens.
Test [14] deals with T5, Ubiquitin-conjugating enzyme E2 N (Homo sapiens, UniProt P61088).
T5 sequence (P61088 whole entry): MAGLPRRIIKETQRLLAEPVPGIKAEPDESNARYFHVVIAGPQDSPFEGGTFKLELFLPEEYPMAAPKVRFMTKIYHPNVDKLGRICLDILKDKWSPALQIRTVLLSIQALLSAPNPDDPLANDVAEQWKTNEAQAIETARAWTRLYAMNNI
The test is classed as functional.

Test [15] concerns the target T5, Ubiquitin-conjugating enzyme E2 N. The test is classed as functional. This is another data set of the same source.
Test [16] in a line: inhibitors of SNCA 5'UTR-driven reporter translation, confirmation, H4 neuroglioma cells, luminescence (AID 1988). The test is classed as functional, cell-based.
For test [17], the system named is Vero. The experiment in a line: cells. The test is classed as functional. To be noted: Chlorocebus sabaeus.
A short description of test [18]: Luminescence Cell-Based Dose Response HTS to Identify Inhibitors of 5'UTR Stem-Loop Driven Prion Protein mRNA Translation in H4 Neuroglioblastoma Cells. [Related pubchem assays: 1827 (Project Summary), 1813 (Primary HTS)]. The test is classed as functional.
Test [19] can be described thus: inhibitors of firefly luciferase expression or activity, dose response, H4 neuroglioma cells, luminescence (AID 1990). The test is classed as functional, cell-based.
Test [20] can be described thus: inhibitors of clade B AD8 Env fusion, dose response, cell-based, cherry-pick (AID 652062).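 Note: luciferase signal from cell-cell fusion driven by HIV-1 clade B AD8 Env; potency is for inhibitors of fusion seen as a drop in luminescence.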 The test is classed as functional.
Test [21] can be described thus: ZM109 Env clade C HIV-1 fusion inhibitors, dose response, HeLa effector, CEM target cells, luciferase, cherry-pick (AID 652058). The test is classed as functional, cell-based.

Structures are written as SMILES. Activity calls are given as the source filed them.

For orientation: IC50 means the midpoint of a concentration-inhibition curve. As usually defined, the CC50 is the concentration at which the toxic effect on the cells reaches its halfway point. As usually defined, the EC50 is the concentration giving half of the maximal effect. By AC50 is commonly meant the concentration at which the activity in the assay is half-maximal.

Sequence of Mitogen-activated protein kinase 10 (P53779 whole entry): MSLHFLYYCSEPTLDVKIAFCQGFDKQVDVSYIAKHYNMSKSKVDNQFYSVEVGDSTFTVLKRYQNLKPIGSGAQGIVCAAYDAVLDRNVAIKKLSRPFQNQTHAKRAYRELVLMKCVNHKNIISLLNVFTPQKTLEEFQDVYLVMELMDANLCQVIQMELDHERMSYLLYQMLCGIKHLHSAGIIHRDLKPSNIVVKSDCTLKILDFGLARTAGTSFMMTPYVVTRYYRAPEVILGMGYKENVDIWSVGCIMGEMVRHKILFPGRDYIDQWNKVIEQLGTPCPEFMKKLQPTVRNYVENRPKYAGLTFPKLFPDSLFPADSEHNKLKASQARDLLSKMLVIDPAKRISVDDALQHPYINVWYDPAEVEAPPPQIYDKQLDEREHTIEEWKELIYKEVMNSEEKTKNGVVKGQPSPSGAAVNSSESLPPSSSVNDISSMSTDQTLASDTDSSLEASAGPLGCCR
Sequence of Glutathione-S-transferase (Q26513 whole entry): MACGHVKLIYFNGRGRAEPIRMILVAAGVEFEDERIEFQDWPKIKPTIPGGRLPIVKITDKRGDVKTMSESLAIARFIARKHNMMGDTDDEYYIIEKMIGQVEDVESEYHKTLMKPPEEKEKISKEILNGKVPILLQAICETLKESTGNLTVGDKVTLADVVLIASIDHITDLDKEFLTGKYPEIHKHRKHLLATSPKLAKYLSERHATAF
Sequence of Protein Tat (P04608 whole entry): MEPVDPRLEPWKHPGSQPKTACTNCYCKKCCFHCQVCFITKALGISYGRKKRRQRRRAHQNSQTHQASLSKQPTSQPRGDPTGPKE

Turning to `COc1ccccc1C1C=C(c2ccc(Cl)cc2)Nc2nc(N3C(=O)CCC3=O)nn21` (configuration not stated), the values for the IC50 at Aminopeptidase N and on Prothrombin were 31.3 µM (active) and 5.84 µM (active), respectively.

For `Cc1noc(/C=C/c2ccco2)c1S(=O)(=O)N1CCC(C(=O)NCc2ccco2)CC1`, the CC50 in [1] is > 40 µM (active).

Turning to `CCCCn1cnc2cc(NCc3ccncc3)ccc21`, in [1], the 50% cytotoxic concentration (CC50) was > 40 µM (active). Also, the IC50 (at Protein Tat; in test [2]) was > 100 µM (active) each time.

Take `Clc1ccc2oc(-c3ccccc3)cc(=NCCCN3CCOCC3)c2c1`: the IC50 at Prothrombin is 24.2 µM (active).

As for `C=C1C(=O)C=C[C@]2(C)C[C@@H]3OC(=O)[C@](C)(O)[C@H]3C[C@@H]12`, the 50% cytotoxic concentration (CC50) in the test with Vero [3] is 10.8 µM (active). Besides, in the test with Vero [4], the IC50 is 24.7 µM (active). Also, the EC50 in the test with H4 is 0.887 µM (active); in test [6], 0.153 µM (active); in test [8], 0.106 µM (active). Further, the AC50 in [5] was 4.35 µM (active); in test [7] it was 10.3 µM (active).

`c1ccc2nc3c(nc2c1)c1ccccc1n3CCN1CCOCC1`: the IC50 in [9] is > 93.1 µM (not active).

`OCCN1CCN(CCCN2c3ccccc3Sc3ccc(Cl)cc32)CC1` [PERPHENAZINE]: the half-inhibitory concentration (IC50) on NADPH oxidase 1 was > 17 µM (not active); in [11], 7.37 µM (inactive); on Bcl-2-related protein A1, > 20 µM (inactive); in test [12], 15.5 µM (inactive); in [14], 13.4 µM (active); in [15], 16.2 µM (active). The EC50 in test [10] was 10.4 µM (active); in [13], 10.5 µM (active).

Regarding `COc1ccc(C2c3ccc4ccccc4c3Oc3ncn(CCN4CCOCC4)c(=N)c32)cc1OC` (configuration not stated), the CC50 is > 100 µM (active) in the test on Vero [3] and 23.8 µM (active) with Vero [17]. Besides, in the test with Vero [4], the IC50 was 31.4 µM (active). The EC50 in test [16] was 9.75 µM (active); in test [18], 33.4 µM (active); in test [19], > 120 µM (not active).

As to `N#Cc1c(NCc2ccccc2)ccnc1NCc1cccnc1`, the AC50 in test [20] is 5.44 µM (active); in [21], 0.861 µM (active). Also, the half-inhibitory concentration (IC50) in test [9] is 3.96 µM (active).

For the origin of these results see ChEMBL document CHEMBL1201862, “PubChem BioAssay data set” (2004).
